Consider four molecules from article PMC6478789, “A chemical toolbox for the study of bromodomains and epigenetic signaling” (Nature Communications, 2019).

Assay [1] concerns the target BRD8(2) (Homo sapiens, UniProt Q9H0E9). The assay can be described thus: BROMOscan ligand-binding assay.
Text: (§1) BROMOscan is a binding assay based on the well-known KINOMEscan technology. This assay measures the binding of a DNA-tagged bromodomain to an immobilized BRD ligand. If an inhibitor is present, it will compete with the bromodomain binding to the immobilized ligand, resulting in reduction of a quantitative PCR (qPCR) signal in a dose-dependent manner.
In assay [2] the target is T1, PCAF (Homo sapiens, UniProt Q92831).
T1 sequence (Q92831 723-827 limits assumed): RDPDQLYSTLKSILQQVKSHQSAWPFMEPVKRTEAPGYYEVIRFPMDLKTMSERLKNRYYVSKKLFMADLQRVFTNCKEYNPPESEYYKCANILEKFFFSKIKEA
The assay can be described thus: BROMOscan ligand-binding assay.
Text: as §1

Assay [3] has as its target BRD4(fl) (Homo sapiens, UniProt O60885). Nature of the assay: BROMOscan ligand-binding assay.
Text: as §1
Assay [4] concerns the target T2, EP300 (Homo sapiens, UniProt Q09472).
T2 sequence (Q09472 1049-1156 limits assumed): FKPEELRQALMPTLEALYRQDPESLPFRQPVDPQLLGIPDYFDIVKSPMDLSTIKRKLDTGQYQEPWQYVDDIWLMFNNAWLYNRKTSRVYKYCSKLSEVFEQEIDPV
The assay can be described thus: BROMOscan ligand-binding assay.
Text: as §1

Assay [5] concerns the target BRDT(2) (Homo sapiens, UniProt Q58F21). The assay can be described thus: BROMOscan ligand-binding assay.
Text: as §1
In assay [6] the target is BRD2(1,2) (Homo sapiens, UniProt P25440). The assay can be described thus: BROMOscan ligand-binding assay.
Text: as §1
The target of assay [7] is SMARCA2 (Homo sapiens, UniProt P51531). The assay can be described thus: BROMOscan ligand-binding assay.
Text: as §1
Assay [8] deals with T3, BRD7 (Homo sapiens, UniProt Q9NPI1).
T3 sequence (Q9NPI1 131-235 limits assumed): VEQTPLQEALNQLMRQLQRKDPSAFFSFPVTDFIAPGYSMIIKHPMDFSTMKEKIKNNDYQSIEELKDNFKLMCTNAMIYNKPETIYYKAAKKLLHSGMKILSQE
The assay can be described thus: BROMOscan ligand-binding assay.
Text: as §1

The target of assay [9] is BRD3(1,2) (Homo sapiens, UniProt Q15059). The assay can be described thus: BROMOscan ligand-binding assay.
Text: as §1
The target of assay [10] is T4, TRIM24(PHD,BRD) (Homo sapiens, UniProt O15164).
T4 sequence (O15164 824-1006 limits assumed): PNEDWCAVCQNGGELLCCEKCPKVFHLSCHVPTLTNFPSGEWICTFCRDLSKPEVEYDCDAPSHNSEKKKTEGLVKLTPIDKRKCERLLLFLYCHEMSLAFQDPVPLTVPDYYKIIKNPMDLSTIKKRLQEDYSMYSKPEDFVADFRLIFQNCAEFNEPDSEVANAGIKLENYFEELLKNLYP
The assay can be described thus: BROMOscan ligand-binding assay.
Text: as §1

Assay [11] has as its target T5, ATAD2B (Homo sapiens, UniProt Q9ULI0).
T5 sequence (Q9ULI0 951-1066 limits assumed): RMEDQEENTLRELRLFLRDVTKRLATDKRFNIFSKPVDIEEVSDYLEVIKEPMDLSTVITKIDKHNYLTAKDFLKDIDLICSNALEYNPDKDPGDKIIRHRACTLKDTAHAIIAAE
Nature of the assay: BROMOscan ligand-binding assay.
Text: as §1

The target in assay [12] is BRDT(1,2) (Homo sapiens, UniProt Q58F21). Nature of the assay: BROMOscan ligand-binding assay.
Text: as §1
Assay [13] concerns the target BRPF1 (Homo sapiens, UniProt P55201). Nature of the assay: Temperature shift assay (non-BRD reader domains). In kind it is binding. The conditions noted are these: 10µM compound.
Assay [14] has as its target GCN5L2 (Homo sapiens, UniProt Q92830). The assay can be described thus: Histone acetyltransferase (HAT) activity assay. The format is biochemical. The conditions noted are these: read-out: HATs Activity (%).
Assay [15] concerns the target EP300 (Homo sapiens, UniProt Q09472). The assay can be described thus: Histone acetyltransferase (HAT) activity assay. The format is biochemical. The conditions noted are these: read-out: HATs Activity (%).
The target of assay [16] is T6, MYST1 (Homo sapiens, UniProt Q9H7Z6).
T6 sequence (Q9H7Z6 1-458): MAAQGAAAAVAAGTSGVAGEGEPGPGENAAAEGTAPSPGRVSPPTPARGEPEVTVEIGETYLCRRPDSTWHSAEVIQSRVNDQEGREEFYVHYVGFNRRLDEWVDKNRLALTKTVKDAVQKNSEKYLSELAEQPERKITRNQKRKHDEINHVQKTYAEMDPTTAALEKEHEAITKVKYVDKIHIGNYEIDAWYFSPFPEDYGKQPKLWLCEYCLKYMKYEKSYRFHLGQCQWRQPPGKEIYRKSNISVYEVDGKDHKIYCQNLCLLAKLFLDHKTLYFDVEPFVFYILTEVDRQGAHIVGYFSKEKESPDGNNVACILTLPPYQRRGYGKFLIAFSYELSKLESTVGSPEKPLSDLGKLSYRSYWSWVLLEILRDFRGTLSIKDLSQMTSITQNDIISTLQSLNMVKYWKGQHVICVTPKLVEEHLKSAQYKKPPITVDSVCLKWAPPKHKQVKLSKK
Nature of the assay: Histone acetyltransferase (HAT) activity assay. The format is biochemical. Conditions: read-out: HATs Activity (%).

The target in assay [17] is MYST3 (Homo sapiens, UniProt Q92794). The assay can be described thus: Histone acetyltransferase (HAT) activity assay. In kind it is biochemical. Conditions: read-out: HATs Activity (%).
Assay [18] concerns the target T7, HAT1 (Homo sapiens, UniProt O14929).
T7 sequence (O14929 1-419): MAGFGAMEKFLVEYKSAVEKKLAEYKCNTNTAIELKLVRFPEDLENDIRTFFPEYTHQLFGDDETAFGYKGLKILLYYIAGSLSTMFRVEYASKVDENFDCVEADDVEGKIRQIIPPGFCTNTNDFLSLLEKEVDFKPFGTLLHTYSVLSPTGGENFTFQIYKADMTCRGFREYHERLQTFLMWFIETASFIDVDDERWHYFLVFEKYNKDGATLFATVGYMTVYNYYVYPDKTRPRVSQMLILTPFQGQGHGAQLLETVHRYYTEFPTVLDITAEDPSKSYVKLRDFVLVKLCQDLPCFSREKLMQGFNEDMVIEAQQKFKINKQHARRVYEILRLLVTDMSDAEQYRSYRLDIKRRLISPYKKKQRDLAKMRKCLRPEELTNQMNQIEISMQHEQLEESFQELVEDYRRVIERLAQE
Nature of the assay: Histone acetyltransferase (HAT) activity assay. In kind it is biochemical. The conditions noted are these: read-out: HATs Activity (%).

[19] abbreviates: KD (BROMOscan), sheet prints no unit (nM).
Where [20] appears, read: KD, BROMOscan Gene Symbol BRD8(2).
Setting [21] is: KD, BROMOscan Gene Symbol BRDT(2).
Where [22] appears, read: KD, BROMOscan Gene Symbol BRD3(1,2).
Setting [23] is: KD, BROMOscan Gene Symbol ATAD2B.
Where [24] appears, read: KD, BROMOscan Gene Symbol BRDT(1,2).

Each structure is given as a SMILES string. Read-outs that look alike come from different tables or passages of the source. Bounds are passed on as bounds.

Chain of BRD2(1,2) (P25440 71-455 limits assumed): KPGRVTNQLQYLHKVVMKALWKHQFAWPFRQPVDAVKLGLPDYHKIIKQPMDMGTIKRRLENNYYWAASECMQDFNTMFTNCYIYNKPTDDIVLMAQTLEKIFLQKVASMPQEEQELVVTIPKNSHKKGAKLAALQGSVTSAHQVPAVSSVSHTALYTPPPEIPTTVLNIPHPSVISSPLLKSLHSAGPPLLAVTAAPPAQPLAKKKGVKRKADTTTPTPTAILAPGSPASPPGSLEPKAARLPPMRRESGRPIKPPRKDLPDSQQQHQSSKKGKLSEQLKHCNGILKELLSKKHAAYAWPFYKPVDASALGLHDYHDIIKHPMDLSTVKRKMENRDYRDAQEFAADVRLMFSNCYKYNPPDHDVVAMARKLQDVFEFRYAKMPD
Chain of MYST3 (Q92794 whole entry, species assumed): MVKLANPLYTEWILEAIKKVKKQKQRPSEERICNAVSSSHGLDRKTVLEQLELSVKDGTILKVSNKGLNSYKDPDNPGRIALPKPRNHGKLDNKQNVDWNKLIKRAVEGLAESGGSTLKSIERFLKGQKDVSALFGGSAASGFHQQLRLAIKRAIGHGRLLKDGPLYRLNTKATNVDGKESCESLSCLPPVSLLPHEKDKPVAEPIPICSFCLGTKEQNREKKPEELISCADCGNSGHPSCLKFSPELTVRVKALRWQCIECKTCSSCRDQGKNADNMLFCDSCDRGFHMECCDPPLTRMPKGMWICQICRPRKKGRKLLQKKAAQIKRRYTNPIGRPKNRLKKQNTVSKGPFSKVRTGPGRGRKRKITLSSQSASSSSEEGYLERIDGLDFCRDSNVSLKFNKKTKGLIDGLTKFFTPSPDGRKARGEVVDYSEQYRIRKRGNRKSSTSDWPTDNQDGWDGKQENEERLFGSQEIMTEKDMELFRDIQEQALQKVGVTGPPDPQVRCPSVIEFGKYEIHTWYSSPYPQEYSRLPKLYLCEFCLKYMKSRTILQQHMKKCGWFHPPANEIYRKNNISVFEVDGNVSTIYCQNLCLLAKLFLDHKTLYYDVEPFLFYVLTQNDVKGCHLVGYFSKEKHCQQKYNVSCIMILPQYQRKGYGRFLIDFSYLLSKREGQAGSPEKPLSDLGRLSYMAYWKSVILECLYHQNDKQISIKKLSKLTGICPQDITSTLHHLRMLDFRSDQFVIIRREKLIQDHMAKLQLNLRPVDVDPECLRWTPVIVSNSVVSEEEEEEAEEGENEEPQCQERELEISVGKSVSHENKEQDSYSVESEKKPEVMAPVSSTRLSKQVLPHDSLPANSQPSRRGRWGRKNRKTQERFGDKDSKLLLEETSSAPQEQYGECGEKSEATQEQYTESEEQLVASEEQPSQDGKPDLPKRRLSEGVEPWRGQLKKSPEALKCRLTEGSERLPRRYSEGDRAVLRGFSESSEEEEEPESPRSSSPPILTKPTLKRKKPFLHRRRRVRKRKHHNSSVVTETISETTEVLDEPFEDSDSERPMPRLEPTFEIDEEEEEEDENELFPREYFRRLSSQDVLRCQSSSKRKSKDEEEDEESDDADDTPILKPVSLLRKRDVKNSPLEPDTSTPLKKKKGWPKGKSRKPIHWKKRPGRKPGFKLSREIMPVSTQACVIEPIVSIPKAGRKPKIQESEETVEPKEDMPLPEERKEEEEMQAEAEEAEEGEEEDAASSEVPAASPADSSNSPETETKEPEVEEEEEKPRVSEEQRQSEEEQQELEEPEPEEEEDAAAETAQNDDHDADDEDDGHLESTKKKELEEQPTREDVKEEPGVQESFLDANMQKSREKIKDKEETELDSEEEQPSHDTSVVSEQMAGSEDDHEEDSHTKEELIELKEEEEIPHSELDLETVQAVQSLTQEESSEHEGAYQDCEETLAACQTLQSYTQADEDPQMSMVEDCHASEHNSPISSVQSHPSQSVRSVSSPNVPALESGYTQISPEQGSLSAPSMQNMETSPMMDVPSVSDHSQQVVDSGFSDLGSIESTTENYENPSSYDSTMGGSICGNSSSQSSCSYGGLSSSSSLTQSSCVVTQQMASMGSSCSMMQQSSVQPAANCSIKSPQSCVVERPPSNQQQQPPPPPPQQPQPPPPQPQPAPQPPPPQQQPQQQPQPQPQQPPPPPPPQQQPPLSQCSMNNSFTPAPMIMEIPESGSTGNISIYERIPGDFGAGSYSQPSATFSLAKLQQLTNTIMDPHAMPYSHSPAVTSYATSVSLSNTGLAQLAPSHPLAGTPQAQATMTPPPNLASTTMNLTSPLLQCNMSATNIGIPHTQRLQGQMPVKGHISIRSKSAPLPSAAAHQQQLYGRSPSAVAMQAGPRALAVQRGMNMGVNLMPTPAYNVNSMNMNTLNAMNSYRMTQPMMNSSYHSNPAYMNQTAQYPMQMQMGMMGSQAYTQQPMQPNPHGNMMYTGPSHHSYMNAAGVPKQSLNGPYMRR
Chain of SMARCA2 (P51531 1-1572 isoform P51531-2): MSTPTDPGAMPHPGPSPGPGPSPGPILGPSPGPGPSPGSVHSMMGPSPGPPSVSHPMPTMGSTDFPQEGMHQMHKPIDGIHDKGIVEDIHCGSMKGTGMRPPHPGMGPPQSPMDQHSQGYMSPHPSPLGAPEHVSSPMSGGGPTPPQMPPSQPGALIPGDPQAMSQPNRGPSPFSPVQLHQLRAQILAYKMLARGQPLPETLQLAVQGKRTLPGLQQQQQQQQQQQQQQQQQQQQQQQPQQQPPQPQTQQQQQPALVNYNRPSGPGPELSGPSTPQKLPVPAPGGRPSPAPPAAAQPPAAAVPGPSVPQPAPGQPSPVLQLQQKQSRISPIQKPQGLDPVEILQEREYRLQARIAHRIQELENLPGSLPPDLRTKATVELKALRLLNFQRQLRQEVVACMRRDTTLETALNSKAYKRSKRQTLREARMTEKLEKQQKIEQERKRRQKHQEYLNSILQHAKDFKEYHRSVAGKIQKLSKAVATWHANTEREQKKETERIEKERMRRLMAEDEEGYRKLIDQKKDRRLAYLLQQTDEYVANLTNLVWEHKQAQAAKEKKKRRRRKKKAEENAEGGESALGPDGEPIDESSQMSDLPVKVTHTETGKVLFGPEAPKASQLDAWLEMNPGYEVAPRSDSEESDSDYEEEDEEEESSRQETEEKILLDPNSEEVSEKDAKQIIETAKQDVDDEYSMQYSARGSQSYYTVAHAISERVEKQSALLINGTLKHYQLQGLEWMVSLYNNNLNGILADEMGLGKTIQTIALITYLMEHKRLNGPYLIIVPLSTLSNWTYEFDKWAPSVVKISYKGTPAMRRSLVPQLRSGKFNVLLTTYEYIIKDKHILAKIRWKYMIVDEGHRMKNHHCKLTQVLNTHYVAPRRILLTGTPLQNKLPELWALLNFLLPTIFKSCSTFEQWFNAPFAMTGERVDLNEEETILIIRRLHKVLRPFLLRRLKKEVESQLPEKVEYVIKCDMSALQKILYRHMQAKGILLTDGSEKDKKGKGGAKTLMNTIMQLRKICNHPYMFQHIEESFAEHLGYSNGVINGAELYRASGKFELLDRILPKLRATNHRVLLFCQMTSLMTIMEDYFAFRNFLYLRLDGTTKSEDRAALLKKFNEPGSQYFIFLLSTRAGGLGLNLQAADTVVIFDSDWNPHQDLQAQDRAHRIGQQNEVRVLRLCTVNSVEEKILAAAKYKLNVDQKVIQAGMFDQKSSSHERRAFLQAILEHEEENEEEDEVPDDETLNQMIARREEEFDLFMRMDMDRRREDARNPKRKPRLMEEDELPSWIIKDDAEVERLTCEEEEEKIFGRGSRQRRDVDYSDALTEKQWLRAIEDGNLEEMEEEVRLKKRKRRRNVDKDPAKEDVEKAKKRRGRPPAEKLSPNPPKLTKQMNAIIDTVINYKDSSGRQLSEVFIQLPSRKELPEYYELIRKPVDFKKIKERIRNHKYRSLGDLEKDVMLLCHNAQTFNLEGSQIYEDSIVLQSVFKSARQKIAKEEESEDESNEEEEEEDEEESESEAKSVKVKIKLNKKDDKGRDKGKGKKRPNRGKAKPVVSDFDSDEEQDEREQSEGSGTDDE
Chain of BRD3(1,2) (Q15059 24-416 limits assumed): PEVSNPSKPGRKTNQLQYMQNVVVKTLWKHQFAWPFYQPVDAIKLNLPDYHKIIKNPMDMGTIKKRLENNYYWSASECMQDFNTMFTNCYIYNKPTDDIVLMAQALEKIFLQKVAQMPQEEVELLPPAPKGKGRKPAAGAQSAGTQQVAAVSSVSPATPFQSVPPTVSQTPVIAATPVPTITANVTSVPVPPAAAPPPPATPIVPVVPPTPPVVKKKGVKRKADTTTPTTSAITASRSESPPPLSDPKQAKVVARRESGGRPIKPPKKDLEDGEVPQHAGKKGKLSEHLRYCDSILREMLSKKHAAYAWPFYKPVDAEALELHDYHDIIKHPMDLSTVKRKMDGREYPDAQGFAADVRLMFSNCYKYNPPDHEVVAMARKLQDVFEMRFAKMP
Chain of BRD8(2) (Q9H0E9 1099-1207 limits assumed): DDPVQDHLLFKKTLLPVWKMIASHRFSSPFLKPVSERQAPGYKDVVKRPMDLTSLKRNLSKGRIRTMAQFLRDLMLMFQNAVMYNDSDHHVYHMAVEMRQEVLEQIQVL
Chain of BRPF1 (P55201 1085-1168 limits assumed, species assumed): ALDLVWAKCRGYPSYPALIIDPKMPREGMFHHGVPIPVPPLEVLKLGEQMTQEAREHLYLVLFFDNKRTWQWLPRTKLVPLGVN

Take `CCCOc1ccn2c(C(C)=O)cc(-c3ccccc3S(C)(=O)=O)c2c1` [GSK2801]: the Kd (commonly the constant that tells how readily two partners part at equilibrium) is greater than 30000 nM in assay [1] (setting [19]); greater than 100000 nM in [1] (setting [20]); greater than 30000 nM in assay [2] (setting [19]); greater than 100000 nM in assay [2] (KD, BROMOscan Gene Symbol PCAF); 41 µM in assay [3]; 70 µM in assay [4] (KD, BROMOscan Gene Symbol EP300). Besides, the dissociation constant Kd in assay [5] (setting [21]) is 67 µM; in [6] it was 19 µM; in assay [7] (setting [19]), greater than 30000 nM; in assay [7] (KD, BROMOscan Gene Symbol SMARCA2), greater than 100000 nM; in assay [8] (KD, BROMOscan Gene Symbol BRD7), 22 µM; in assay [9] (setting [22]), 17 µM. In addition, the Kd in assay [10] (KD, BROMOscan Gene Symbol TRIM24(PHD,Bromo.)) is 33 µM; in [11] (setting [19]) it was greater than 30000 nM; in assay [11] (setting [23]), greater than 100000 nM; in [12] (setting [24]), 52 µM.
In the case of `CCC(=O)N1CCOc2c(cc(-c3ccc(OC)c(OC)c3)cc2OCC2CCCN(C)C2)C1` (stereo not drawn) [I-CBP112], the Kd is greater than 30000 nM in assay [1] (setting [19]); greater than 100000 nM in assay [1] (setting [20]); 77000 nM in assay [2] (KD, PCAF); 2.85 µM in assay [3]; 0.12 µM in assay [4] (KD, EP300); 49 µM in assay [5] (setting [21]). For the same molecule, the dissociation constant (Kd) was 6.9 µM in assay [6]; greater than 30000 nM in assay [7] (setting [19]); greater than 100000 nM in [7] (KD, SMARCA2); 7.6 µM in assay [8] (KD, BROMOscan Gene Symbol BRD7); 6.3 µM in assay [9] (setting [22]); 14 µM in assay [10] (KD, TRIM24(PHD,Bromo.)). Further, the Kd in assay [11] (setting [23]) amounted to 71000 nM; in [12] (setting [24]), 9.6 µM. Moreover, the “Tm (C) 10µM, temperature shift” value in [13] was -0.2 Kelvin. Moreover, the activity at 1 µM in assay [14] (1µM) was determined as 105%; in [15] (1µM) it was 97%; in assay [16] (1µM), 98%; in [17] (1µM), 98%; in assay [18] (1µM), 100%. Moreover, the activity at 10 µM in [14] (10µM) was determined as 102%; in assay [15] (10µM), 99%; in assay [16] (10µM), 103%; in assay [17] (10µM), 99%; in assay [18] (10µM), 94%.
For `CCCS(=O)(=O)c1nc(NC2CC2)cc(-c2ccc3c(ccn3C3CC(C)(C)NC(C)(C)C3)c2)n1` [NVS-CECR2-1], the Kd in [1] is greater than 30000 nM; in [2], greater than 30000 nM; in assay [3] it was 13 µM; in assay [4], greater than 30 µM; in assay [5] it was greater than 30 µM; in assay [6], 16 µM. Also, the Kd in assay [7] is greater than 30000 nM; in assay [8] it was 6.8 µM; in assay [9], greater than 30 µM; in assay [10], greater than 30 µM; in assay [11], greater than 30000 nM; in assay [12], 14 µM. Moreover, the activity at 1 µM in assay [14] stood at 100%; in assay [15], 90%; in assay [16], 96%; in assay [17], 98%; in [18] it was 99%. The activity at 10 µM worked out at 100% in assay [14]; 84% in assay [15]; 94% in [16]; 103% in assay [17]; 88% in assay [18].
Consider `O=C(C=CN1[C@H]2CC[C@@H]1c1ncnc(NC3CC3)c1C2)c1ccccc1O` [PFI-3 D1], for which the dissociation constant Kd was greater than 30000 nM in [1] (BROMOscan, BRD8(2)); greater than 30000 nM in assay [2] (BROMOscan, PCAF); greater than 30 µM in assay [3] (BROMOscan, BRD4(full-length,short-iso.)); greater than 30 µM in assay [4] (BROMOscan, EP300); greater than 30 µM in assay [5] (BROMOscan, BRDT(2)); greater than 30 µM in assay [6] (BROMOscan, BRD2(1,2)). In addition, the Kd in assay [7] (BROMOscan, SMARCA2) is 49 nM; in assay [8] (BROMOscan, BRD7) it was greater than 30 µM; in assay [9] (BROMOscan, BRD3(1,2)) it was greater than 30 µM; in [10] (BROMOscan, TRIM24(PHD,Bromo.)) it was greater than 30 µM; in assay [11] (BROMOscan, ATAD2B), greater than 30000 nM; in assay [12] (BROMOscan, BRDT(1,2)), greater than 30 µM.
